Assay results reported in paper PMC11783601, “Analogue-Sensitive Inhibition of Histone Demethylases Uncovers Member-Specific Function in Ribosomal Protein Synthesis” (Journal of the American Chemical Society, 2025).
“Also recorded” adds a separate entry of the source.

What was measured:
Assay in all cases: H3K9me3 Western blot of nuclear extracts of transfected HEK293T cells
Format in all cases: cell-based
full-length KDM4B-F186A = molecular target: T1, full-length KDM4B-F186A (Homo sapiens, UniProt O94953, F186A); settings: for inhibition of KDM4B-F186A (asKDM4B) H3K9me3 demethylation: 10 μM concentration; for inhibition of KDM4B-F186A H3K9me3 demethylation, dose-dependent: 10, 20 µM
T1 construct: we generated the full-length as mutants of the remaining KDM4s; host or cells: HEK293T
T1 sequence (O94953 1-1096 F186A): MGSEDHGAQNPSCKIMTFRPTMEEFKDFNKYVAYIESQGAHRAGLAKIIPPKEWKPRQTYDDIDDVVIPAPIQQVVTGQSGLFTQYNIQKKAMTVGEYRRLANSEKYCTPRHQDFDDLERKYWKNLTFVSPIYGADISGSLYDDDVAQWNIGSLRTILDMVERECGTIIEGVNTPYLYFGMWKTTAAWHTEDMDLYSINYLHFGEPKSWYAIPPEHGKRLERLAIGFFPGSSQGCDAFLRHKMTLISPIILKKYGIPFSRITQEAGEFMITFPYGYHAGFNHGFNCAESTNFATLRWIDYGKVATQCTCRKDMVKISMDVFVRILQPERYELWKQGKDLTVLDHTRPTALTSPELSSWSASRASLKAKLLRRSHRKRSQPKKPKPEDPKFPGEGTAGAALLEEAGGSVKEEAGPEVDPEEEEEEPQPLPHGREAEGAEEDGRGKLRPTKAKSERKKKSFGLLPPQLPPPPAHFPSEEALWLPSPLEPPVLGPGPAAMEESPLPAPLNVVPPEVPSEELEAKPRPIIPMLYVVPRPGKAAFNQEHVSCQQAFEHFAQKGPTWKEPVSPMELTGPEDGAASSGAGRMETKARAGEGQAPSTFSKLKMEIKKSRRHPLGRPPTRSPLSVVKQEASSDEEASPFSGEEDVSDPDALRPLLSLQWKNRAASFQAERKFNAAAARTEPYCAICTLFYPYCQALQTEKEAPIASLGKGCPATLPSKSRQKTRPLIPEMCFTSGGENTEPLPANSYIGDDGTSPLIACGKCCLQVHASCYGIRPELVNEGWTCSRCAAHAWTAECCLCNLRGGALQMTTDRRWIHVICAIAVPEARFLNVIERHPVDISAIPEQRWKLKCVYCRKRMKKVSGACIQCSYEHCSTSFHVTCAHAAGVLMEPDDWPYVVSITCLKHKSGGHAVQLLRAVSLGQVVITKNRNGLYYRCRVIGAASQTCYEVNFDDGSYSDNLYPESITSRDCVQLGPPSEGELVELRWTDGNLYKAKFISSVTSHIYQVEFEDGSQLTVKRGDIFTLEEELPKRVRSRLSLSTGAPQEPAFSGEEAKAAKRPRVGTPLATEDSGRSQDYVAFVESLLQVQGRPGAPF
Description: (§1) KDM4B and C are structurally homologous to KDM4A, and KDM4D and E have a catalytic pocket near-identical to that of KDM4A but lack the Tudor and PHD domains known to bind trimethylated lysine in histones (Figure 1B).[11] HEK293T cells were transfected with full-length wild type KDM4B-E or their respective mutants. Western blot analysis of nuclear preparations using the H3K9me3 antibody confirmed all of the proteins to be catalytically active (Figures 4G–N and S32–S35).
(§2) KDM4A mammalian expression plasmid in CMV vector was purchased from Addgene (plasmid #24180). KDM4B mammalian expression plasmid in CMV vector was purchased from Addgene (plasmid #24181). KDM4C mammalian expression plasmid in CMV vector was purchased from Addgene (plasmid #24214). KDM4D mammalian expression plasmid in pReciever vector was purchased from Genecopoia (EX-Z0917-M06.) KDME mammalian expression plasmid in pRP-EXP was designed from Vector Builder. The KDM4A-F185A, KDM4B-F186A, KDM4C -F187A, KDM4D-F189A, and KDM4E F186A mutants were generated using Quikchange Lightening Mutagenesis Kit (Agilent) according to manufacturer’s protocol and confirmed by Sanger […]
(§3) HEK293T/17 cells (ATCC) were grown in Delbucco’s Modified Eagle Medium (DMEM) (Corning) with 10% FBS at 37 °C (Corning), 5% CO2, and 95% relative humidity in a 6-well cell culture plate. When cells reached 90% confluency, 3 µg of plasmid and 6 µg lipofectamine 2000 (Invitrogen: 11668019) were incubated with 100 µL OptiMem. After 5 minutes the plasmid and lipofectamine were combined and incubated at room temperature for 20 minutes and added to the cell culture disk. Cells were returned to the incubator to grow for 4-6 hours. This was followed by treatment of compound treatment (n-octyl IOX121,22 or a specific NOG ester) at indicated concentrations and further culture for specified time. The media was removed, and cells were washed with ice cold PBS (Corning), then trypsinized with TrpLE Express (Gibco). The trypsinization reaction was quenched with DMEM 10% FBS and cells were pelleted then washed once with ice cold PBS. The nuclear extracts were generated by first resuspending the cell pellets in 700 µL nuclear isolation buffer (15 mM Tris pH 7.5, 60 mM KCl, 15 mM NaCl, 5 mM MgCl2, 1 mM CaCl2, 1mm DTT, 2 mM Na3Van, 250 mM sucrose, 1X Pierce protease inhibitor (Thermo Fisher #PIA32955), 1 mM PMSF, 0.3% NP40 diluted to volume with MilliQ H2O) and incubated on ice for 5 minutes.23 The samples were then pelleted by centrifugation at 2000 rcf for 5 minutes.
(§4) The supernatant was removed, and the pelleted nuclei were resuspended in 200 µL Pierce IP lysis buffer (Thermo Fisher #87787) containing 1X Pierce protease inhibitor and left on ice for 5 minutes. The nuclei were then sonicated at 100% amp for 5 minutes (pulsed 1 minute “on”, 20 seconds “rest”) using a Qsonica-Q700, cuphorn sonicator. The samples were pelleted once again at 2000 rcf for 5 minutes and the supernatant containing the nuclear extracts were collected. MgCl2 (1M) solution was added to each sample give a final concentration of 6mM. […]
(§5) Prism with the corresponding bars representing the mean and standard deviation of the population.
(§6) For the time dependent imaging, cells containing the transfected KDM4A mutant were identified by their HA signal. These cells were used to create a selection which was then imposed onto the respective H3K9me3 or BrdU images. The mean signal was then measured for H3K9me3 or BrdU only within the cells expressing the KDM4A mutant. To compare changes in H3K9me3 or BrdU between trials, the quantification values were normalized to the mean signal at t=0. The normalized, mean signal and error for H3K9me3 or BrdU were then plotted in GraphPad Prism.
(§7) 21. General protocol for Western blotting
(§8) Assay samples were mixed with appropriate volume of 4X Laemmli Dye (Bio-Rad), heated at 95 °C for 5 minutes and loaded onto 4–12% Criterion™ XT Bis-Tris protein gels (Bio-Rad #3450123) or in-house prepared SDS-polyacrylamide gel and subjected to electrophoresis […]

full-length KDM4C-F187A = molecular target: T2, full-length KDM4C-F187A (Homo sapiens, UniProt Q9H3R0, F187A); settings: 25-200 µM
T2 construct: we generated the full-length as mutants of the remaining KDM4s; host or cells: HEK293T
T2 sequence (Q9H3R0 whole entry F187A): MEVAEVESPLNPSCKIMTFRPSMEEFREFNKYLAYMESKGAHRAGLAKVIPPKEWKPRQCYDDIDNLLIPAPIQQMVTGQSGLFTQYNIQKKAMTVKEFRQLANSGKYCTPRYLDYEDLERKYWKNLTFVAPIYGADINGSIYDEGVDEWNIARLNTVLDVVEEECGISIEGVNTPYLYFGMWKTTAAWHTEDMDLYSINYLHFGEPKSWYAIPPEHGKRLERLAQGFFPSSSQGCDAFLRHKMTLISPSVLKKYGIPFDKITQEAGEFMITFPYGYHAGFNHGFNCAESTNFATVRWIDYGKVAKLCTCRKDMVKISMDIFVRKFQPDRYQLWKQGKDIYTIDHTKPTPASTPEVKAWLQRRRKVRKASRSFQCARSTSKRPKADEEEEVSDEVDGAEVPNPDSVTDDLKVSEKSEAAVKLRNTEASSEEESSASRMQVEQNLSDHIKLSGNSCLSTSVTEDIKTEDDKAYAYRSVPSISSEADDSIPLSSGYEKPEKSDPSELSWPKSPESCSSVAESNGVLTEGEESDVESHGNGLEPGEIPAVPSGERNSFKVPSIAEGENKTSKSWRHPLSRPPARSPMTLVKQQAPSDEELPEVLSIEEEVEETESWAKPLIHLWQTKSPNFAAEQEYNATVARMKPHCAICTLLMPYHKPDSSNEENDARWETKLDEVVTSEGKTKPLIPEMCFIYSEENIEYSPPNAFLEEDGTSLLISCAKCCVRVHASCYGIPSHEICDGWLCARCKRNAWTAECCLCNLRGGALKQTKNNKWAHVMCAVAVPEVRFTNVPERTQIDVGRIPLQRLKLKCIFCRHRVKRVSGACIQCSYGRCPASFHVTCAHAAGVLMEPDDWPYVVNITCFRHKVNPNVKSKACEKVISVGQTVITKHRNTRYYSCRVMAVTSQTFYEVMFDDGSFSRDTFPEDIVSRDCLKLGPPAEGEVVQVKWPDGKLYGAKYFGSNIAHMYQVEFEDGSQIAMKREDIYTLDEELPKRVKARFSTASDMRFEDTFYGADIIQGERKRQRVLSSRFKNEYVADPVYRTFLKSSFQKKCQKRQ
Description: as §1, §2, §3, §4, §5, §6, §7, §8

full-length KDM4D-F189A = molecular target: T3, full-length KDM4D-F189A (Homo sapiens, UniProt Q6B0I6, F189A); settings: 25-200 µM
T3 construct: we generated the full-length as mutants of the remaining KDM4s; host or cells: HEK293T
T3 sequence (Q6B0I6 whole entry F189A): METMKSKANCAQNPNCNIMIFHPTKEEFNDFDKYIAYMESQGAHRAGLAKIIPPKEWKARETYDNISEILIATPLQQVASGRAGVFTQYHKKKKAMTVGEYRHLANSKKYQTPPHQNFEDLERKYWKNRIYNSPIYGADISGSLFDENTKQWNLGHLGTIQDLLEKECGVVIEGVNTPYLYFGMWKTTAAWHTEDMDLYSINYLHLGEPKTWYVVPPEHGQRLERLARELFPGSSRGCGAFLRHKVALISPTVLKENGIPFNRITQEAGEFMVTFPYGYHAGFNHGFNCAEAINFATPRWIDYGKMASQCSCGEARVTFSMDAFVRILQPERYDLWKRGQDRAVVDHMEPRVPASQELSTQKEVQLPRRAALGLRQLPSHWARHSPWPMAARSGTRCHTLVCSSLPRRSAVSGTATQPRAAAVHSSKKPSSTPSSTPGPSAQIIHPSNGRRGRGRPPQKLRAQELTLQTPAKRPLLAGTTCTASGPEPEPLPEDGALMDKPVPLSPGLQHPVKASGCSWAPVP
Description: as §1, §2, §3, §4, §5, §6, §7, §8

full-length KDM4E-F186A = molecular target: T4, full-length KDM4E-F186A (Homo sapiens, UniProt B2RXH2, F186A); settings: 25-200 µM
T4 construct: we generated the full-length as mutants of the remaining KDM4s; host or cells: HEK293T
T4 sequence (B2RXH2 whole entry F186A): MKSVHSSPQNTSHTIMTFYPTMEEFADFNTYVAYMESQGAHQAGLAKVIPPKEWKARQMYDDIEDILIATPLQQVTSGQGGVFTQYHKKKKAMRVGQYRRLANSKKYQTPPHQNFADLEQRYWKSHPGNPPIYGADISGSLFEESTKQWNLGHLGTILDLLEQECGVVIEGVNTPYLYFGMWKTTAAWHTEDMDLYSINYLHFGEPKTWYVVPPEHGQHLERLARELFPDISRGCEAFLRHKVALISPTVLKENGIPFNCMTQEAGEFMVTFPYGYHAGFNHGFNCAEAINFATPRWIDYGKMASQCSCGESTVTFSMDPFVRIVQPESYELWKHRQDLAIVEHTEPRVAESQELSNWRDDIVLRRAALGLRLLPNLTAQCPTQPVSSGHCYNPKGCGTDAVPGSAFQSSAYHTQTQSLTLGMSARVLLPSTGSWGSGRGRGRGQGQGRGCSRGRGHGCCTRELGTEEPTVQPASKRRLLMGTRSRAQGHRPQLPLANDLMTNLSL
Description: as §1, §2, §3, §4, §5, §6, §7, §8

Row | Structure (SMILES) | inhibition of KDM4B-F186A (asKDM4B) H3K9me3 demethylation (full-length KDM4B-F186A) | inhibition of KDM4B-F186A H3K9me3 demethylation, dose-dependent (full-length KDM4B-F186A) | inhibition of KDM4C-F187A H3K9me3 demethylation (full-length KDM4C-F187A) | inhibition of KDM4D-F189A H3K9me3 demethylation (full-length KDM4D-F189A) | inhibition of KDM4E-F186A H3K9me3 demethylation (full-length KDM4E-F186A)
1 | CCCCCCCCOC(=O)C(=O)NC(CC(C)C)C(=O)O [6A, L-Leu octyl-ester NOG] | robust inhibition | Dose-dependent inhibition; also recorded: significantly reduced | Dose-dependent inhibition; also recorded: significantly reduced | Dose-dependent inhibition; also recorded: significantly reduced | Dose-dependent inhibition; also recorded: significantly reduced
2 | CC(C)CC(NC(=O)C(=O)OCc1cccc(C(F)(F)F)c1)C(=O)O [6B, L-Leu TFMB-ester NOG] | robust inhibition | Dose-dependent inhibition; also recorded: significantly reduced | significantly reduced | Inhibition; also recorded: significantly reduced | significantly reduced
